Reference: patent US8614327B2 (Vertex Pharmaceuticals Incorporated, priority 2004, dated 2013)

Molecular target: T1, ΔF508-CFTR (Homo sapiens, UniProt P13569, DEL508-508)
T1 construct: expressed in transfected cells
Test: Membrane potential optical (FRET/VIPR) assay, identification of potentiator compounds
Type: cell-based
Conditions: Table 3, assay not given; for % Activity: relative efficacy
How it was run: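 Double-addition potentiator screen: compound delivered in gluconate-substituted Cl^--free medium, membrane potential followed via CC2-DMPE/DiSBAC2(3) FRET on VIPR. Cells were ΔF508-CFTR-expressing NIH3T3 mouse fibroblasts, held 2 h at 37° C. then 24 h at 27° C. before assay.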

T1 sequence (P13569 with tags, fused parts or gaps DEL508-508): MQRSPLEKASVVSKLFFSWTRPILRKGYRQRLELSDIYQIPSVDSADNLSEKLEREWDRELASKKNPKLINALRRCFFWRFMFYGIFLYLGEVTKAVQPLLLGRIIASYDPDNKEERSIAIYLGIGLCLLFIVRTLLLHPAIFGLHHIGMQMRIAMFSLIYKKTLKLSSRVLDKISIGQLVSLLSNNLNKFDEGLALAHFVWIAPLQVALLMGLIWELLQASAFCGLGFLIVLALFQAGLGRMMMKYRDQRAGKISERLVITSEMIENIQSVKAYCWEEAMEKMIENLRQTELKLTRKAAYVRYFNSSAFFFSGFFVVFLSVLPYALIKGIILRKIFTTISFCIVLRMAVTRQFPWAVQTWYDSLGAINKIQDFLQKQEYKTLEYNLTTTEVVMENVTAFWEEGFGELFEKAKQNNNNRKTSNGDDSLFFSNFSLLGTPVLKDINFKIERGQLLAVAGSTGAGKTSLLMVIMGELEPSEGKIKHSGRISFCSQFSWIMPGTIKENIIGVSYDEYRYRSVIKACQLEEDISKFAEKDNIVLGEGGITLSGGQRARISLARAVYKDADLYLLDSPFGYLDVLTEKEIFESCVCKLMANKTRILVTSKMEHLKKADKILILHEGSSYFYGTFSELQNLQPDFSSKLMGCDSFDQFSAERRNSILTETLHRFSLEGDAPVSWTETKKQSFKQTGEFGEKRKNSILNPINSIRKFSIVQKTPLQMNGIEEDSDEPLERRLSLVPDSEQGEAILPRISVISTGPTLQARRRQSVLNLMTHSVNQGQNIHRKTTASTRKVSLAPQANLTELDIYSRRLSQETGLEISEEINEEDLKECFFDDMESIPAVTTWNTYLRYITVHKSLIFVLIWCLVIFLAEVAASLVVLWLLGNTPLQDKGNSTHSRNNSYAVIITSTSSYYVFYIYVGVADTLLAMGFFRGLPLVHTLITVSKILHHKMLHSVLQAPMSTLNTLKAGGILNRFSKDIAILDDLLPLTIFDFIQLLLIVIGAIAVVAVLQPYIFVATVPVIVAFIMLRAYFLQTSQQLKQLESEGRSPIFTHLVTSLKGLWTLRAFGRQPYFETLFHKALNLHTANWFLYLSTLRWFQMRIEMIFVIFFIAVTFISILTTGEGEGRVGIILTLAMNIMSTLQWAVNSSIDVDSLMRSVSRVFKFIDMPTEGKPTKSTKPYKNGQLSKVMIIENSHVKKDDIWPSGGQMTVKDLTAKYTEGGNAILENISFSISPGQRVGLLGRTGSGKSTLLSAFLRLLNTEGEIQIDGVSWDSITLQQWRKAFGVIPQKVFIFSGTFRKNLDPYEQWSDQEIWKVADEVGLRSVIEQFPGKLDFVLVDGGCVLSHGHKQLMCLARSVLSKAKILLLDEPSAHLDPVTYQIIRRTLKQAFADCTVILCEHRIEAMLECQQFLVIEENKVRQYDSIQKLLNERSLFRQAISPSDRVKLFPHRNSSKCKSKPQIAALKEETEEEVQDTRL

| EC50 [µM] | % Activity | Compound |
| --- | --- | --- |
| < 10 | ++ (between 25% to 100%) | O=C(Nc1ccc(C(F)(F)F)c(O)c1)c1c[nH]c2ccccc2c1=O [Compound 506, N-[3-hydroxy-4-(trifluoromethyl)phenyl]-4-oxo-1H-quinoline-3-carboxamide] |
| < 10 | ++ (between 25% to 100%) | CCc1cc(C(C)(C)C)c(O)cc1NC(=O)c1c[nH]c2ccccc2c1=O [Compound 659, N-(2-ethyl-5-hydroxy-4-tert-butyl-phenyl)-4-oxo-1H-quinoline-3-carboxamide] |
| < 10 | ++ (between 25% to 100%) | Cc1ccc2cccc(NC(=O)c3c[nH]c4ccccc4c3=O)c2n1 [Compound 364, N-(2-methyl-8-quinolyl)-4-oxo-1H-quinoline-3-carboxamide] |
|  | ++ (between 25% to 100%) | COc1ccccc1-c1cc2cc[nH]c2cc1NC(=O)c1c[nH]c2ccccc2c1=O [Compound 237, N-[5-(2-methoxyphenyl)-1H-indol-6-yl]-4-oxo-1H-quinoline-3-carboxamide] |
| < 10 | ++ (between 25% to 100%) | CC(C)(C)c1cccc(NC(=O)c2c[nH]c3ccccc3c2=O)c1 [Compound 602, 4-oxo-N-(3-tert-butylphenyl)-1H-quinoline-3-carboxamide] |
| < 10 | ++ (between 25% to 100%) | O=C(Nc1ccc(-c2ccccc2)cc1)c1c[nH]c2ccccc2c1=O [Compound 397, 4-oxo-N-(4-phenylphenyl)-1H-quinoline-3-carboxamide] |
| 25 to 60 | + (<25%) | COc1ccc(NC(=O)c2c[nH]c3ccccc3c2=O)cn1 [Compound 162, N-(6-methoxy-3-pyridyl)-4-oxo-1H-quinoline-3-carboxamide] |
| < 10 | ++ (between 25% to 100%) | O=C(Nc1ccccc1-c1cc(Cl)cc(Cl)c1)c1c[nH]c2ccccc2c1=O [Compound 367, N-[2-(3,5-dichlorophenyl)phenyl]-4-oxo-1H-quinoline-3-carboxamide] |
| < 10 | ++ (between 25% to 100%) | O=C(Nc1cc(N2CCCC2)cc(C(F)(F)F)c1)c1c[nH]c2ccccc2c1=O [Compound 593, 4-oxo-N-[3-pyrrolidin-1-yl-5-(trifluoromethyl)phenyl]-1H-quinoline-3-carboxamide] |
| < 10 | ++ (between 25% to 100%) | N#Cc1cccc(-c2ccccc2NC(=O)c2c[nH]c3ccccc3c2=O)c1 [Compound 83, N-[2-(3-cyanophenyl)phenyl]-4-oxo-1H-quinoline-3-carboxamide] |
| < 10 | ++ (between 25% to 100%) | CCCc1ccc(N(C)C)cc1NC(=O)c1c[nH]c2ccccc2c1=O [Compound 98, N-(5-dimethylamino-2-propyl-phenyl)-4-oxo-1H-quinoline-3-carboxamide] |
| < 10 | ++ (between 25% to 100%) | Cc1cccc2[nH]cc(C(=O)Nc3ccc(N4[C@@H](C)CC[C@@H]4C)cc3C(F)(F)F)c(=O)c12 [Compound 516, N-(4-((2S,5S)-2,5-dimethylpyrrolidin-1-yl)-2-(trifluoromethyl)phenyl)-5-methyl-4-oxo-1,4-dihydroquinoline-3-carboxamide] |
| 25 to 60 | + (<25%) | COc1ccc(NC(=O)c2c[nH]c3ccccc3c2=O)cc1OC [Compound 122, N-(3,4-dimethoxyphenyl)-4-oxo-1H-quinoline-3-carboxamide] |
| < 10 | ++ (between 25% to 100%) | Cc1ccc(NC(=O)c2c[nH]c3ccccc3c2=O)cc1C [Compound 246, N-(3,4-dimethylphenyl)-4-oxo-1H-quinoline-3-carboxamide] |
| < 10 | ++ (between 25% to 100%) | CC(C)c1ccc(NC(=O)c2c[nH]c3c(F)cccc3c2=O)c(C(F)(F)F)c1 [Compound 573, 8-fluoro-N-[4-isopropyl-2-(trifluoromethyl)phenyl]-4-oxo-1H-quinoline-3-carboxamide] |
| 10 to 25 | ++ (between 25% to 100%) | CS(=O)(=O)c1ccc(-c2ccccc2NC(=O)c2c[nH]c3ccccc3c2=O)cc1 [Compound 326, N-[2-(4-methylsulfonylphenyl)phenyl]-4-oxo-1H-quinoline-3-carboxamide] |
| < 10 | +++ (>100%) | COC(=O)[C@]1(C)CCCN1c1ccc(NC(=O)c2c[nH]c3ccccc3c2=O)c(C(F)(F)F)c1 [Compound 631, (S)-methyl 2-methyl-1-(4-(4-oxo-1,4-dihydroquinoline-3-carboxamido)-3-(trifluoromethyl)phenyl)pyrrolidine-2-carboxylate] |
| < 10 | ++ (between 25% to 100%) | O=C(Nc1cccc2cc[nH]c12)c1c[nH]c2ccccc2c1=O [Compound 37, N-(1H-indol-7-yl)-4-oxo-1H-quinoline-3-carboxamide] |
| < 10 | ++ (between 25% to 100%) | Cc1cccc2[nH]cc(C(=O)Nc3ccc(N4CCC(F)(F)C4)cc3C(F)(F)F)c(=O)c12 [Compound 528, N-[4-(3,3-difluoropyrrolidin-1-yl)-2-(trifluoromethyl)phenyl]-5-methyl-4-oxo-1H-quinoline-3-carboxamide] |
| < 10 | ++ (between 25% to 100%) | O=C(Nc1ccccc1N1CCCC1)c1c[nH]c2ccccc2c1=O [Compound 295, 4-oxo-N-(2-pyrrolidin-1-ylphenyl)-1H-quinoline-3-carboxamide] |
| < 10 | ++ (between 25% to 100%) | CCCc1ccccc1NC(=O)c1c[nH]c2ccccc2c1=O [Compound 16, 4-oxo-N-(2-propylphenyl)-1H-quinoline-3-carboxamide] |
| 10 to 25 | ++ (between 25% to 100%) | Cc1ccc(S(=O)(=O)Nc2ccccc2NC(=O)c2c[nH]c3ccccc3c2=O)cc1 [Compound 398, 4-oxo-N-[2-(p-tolylsulfonylamino)phenyl]-1H-quinoline-3-carboxamide] |
| 25 to 60 | + (<25%) | Cc1ccc(C(N)=O)c(NC(=O)c2c[nH]c3ccccc3c2=O)c1 [Compound 335, N-(2-carbamoyl-5-methyl-phenyl)-4-oxo-1H-quinoline-3-carboxamide] |
| 10 to 25 | ++ (between 25% to 100%) | O=C(Nc1cc(Cl)cc(NS(=O)(=O)CCN2CCCCC2)c1)c1c[nH]c2ccccc2c1=O [Compound 133, N-[3-chloro-5-[2-(1-piperidyl)ethylsulfonylamino]phenyl]-4-oxo-1H-quinoline-3-carboxamide] |
| < 10 | ++ (between 25% to 100%) | CC(C)(C)c1cc2cc[nH]c2cc1NC(=O)c1c[nH]c2cc(F)c(F)cc2c1=O [Compound 646, 6,7-difluoro-4-oxo-N-(5-tert-butyl-1H-indol-6-yl)-1H-quinoline-3-carboxamide] |
| < 10 | ++ (between 25% to 100%) | O=C(Nc1ccc(N2CCC(CO)CC2)cc1C(F)(F)F)c1c[nH]c2ccccc2c1=O [Compound 668, N-[4-[4-(hydroxymethyl)-1-piperidyl]-2-(trifluoromethyl)phenyl]-4-oxo-1H-quinoline-3-carboxamide] |
|  | ++ (between 25% to 100%) | CS(=O)(=O)Nc1cccc(NC(=O)c2c[nH]c3ccccc3c2=O)c1 [Compound 214, N-(3-methylsulfonylaminophenyl)-4-oxo-1H-quinoline-3-carboxamide] |
